Assay results published in US20080193549A1, “Hoki Fish Liver Oil, Fractions Thereof And Therapeutic Uses” (Otago Innovation Limited, priority 2004, published 2008).

Legend:
[1] = tested on: rat monocytes; test: macrophage assay: conversion of monocytes to macrophages (nitric oxide, Griess); format: cell-based
Description: A diluent composed of RPMI culture media containing 10% foetal calf serum (FCS) was prepared. A density gradient barrier was prepared by mixing a working solution [Optiprep: diluent, 2:1, v/v] with further diluent in a ratio of 2.3 to 5.0. The density of 1.076 g/ml is required for isolating rat monocytes. Freshly isolated rat blood was cooled to 4° C. 5 ml of the density gradient was layered over 5 ml of the blood and 5 ml of diluent was then layered gently on top. After centrifuging at 700 g for 30 min at 4° C., the monocytes were collected from the top of the 1.076 g/ml layer and diluted with 2 volumes of diluent and the pellet was gently resuspended in Hanks Balanced Salt Solution (HBSS). The cell concentration and the relative purity were determined. 500 μl Aliquots of cell suspension were used. […] 10 μl of LPS (5 mg/ml) was then added to all tubes, except the control, to give a final concentration of LPS of approximately 20 μg/ml. The cells were incubated overnight at 37° C. and then centrifuged at 12,000 g (4° C.) for 5 min. The supernatants were collected and aliquots of these were then assayed in duplicate for the concentration of nitric oxide (NO) by the Griess reagent procedure using a kit (Sigma, St Louis, USA).

[2] = tested on: activated neutrophils; test: neutrophil activation: superoxide production (WST-1); format: cell-based, rat; settings: 100 μg/ml, positive control
Description: The in vitro anti-inflammatory screening assay used in this investigation involved determining the effect of a test material on activated neutrophils. The production of superoxide was measured. Neutrophils were prepared from fresh rat blood and diluted with phosphate-buffered saline (PBS) and adjusted to a concentration of 10^7 cells per ml. The purity of the preparation was 95% or higher. The test sample was pre-incubated with a cell suspension at 37° C. for 15 minutes in wells of a 96 well culture plate. Then catalase and WST-1 dye reagent were added to each incubate (including controls). Each was then activated with phorbol myristate acetate (100 ng/ml). After incubation for 1 hr at 37° C. the reaction was stopped and the level of superoxide produced from oxidation of the dye WST by the superoxide in each well of the plate determined calorimetrically at 450 nm. As a positive control, triplicate wells with aspirin (100 μg/ml) were assayed. Each sample was assessed at three different concentrations.

Structure (SMILES)	% Inhibition of conversion of monocytes to macrophages (NO production) ([1]; 2.5 μM) [%]	Absorbance units (nitric oxide production) ([1]; 2.5 μM) [Absorbance units]	% Inhibition of conversion of monocytes to macrophages (NO production) ([1]; 5 μM) [%]	Absorbance units (nitric oxide production) ([1]; 5 μM) [Absorbance units]	Absorbance units (superoxide production) [2] [Absorbance units]	inhibition at 100 µg/mL ([2]; Rattus norvegicus, Neutrophil) [%]
CNC(=N)NCCC[C@H](N)C(=O)O [L-NMMA]	44.94	1.568	75.07	0.710	–	–
CC(=O)Oc1ccccc1C(=O)O [Aspirin, aspirin]	–	–	–	–	0.3095	46.9
